≈ marks a conversion by molar mass, not a printed value. Where “and” joins values, the source holds several entries; their conditions need not be identical. Equal values may be shown once. Read-outs that look alike come from different tables or passages of the source.
Key:
[1] = system: SK-BR3; assay: Inhibition of Cancer Cell Growth as Measured by Cell Number (Sulforhodamine B); format: cell-based, Human; settings: 48 hours exposure; for IC50: Homo sapiens, SK-BR-3, 48 h
Method: (§1) Human tumor cell lines were plated in 96-well plates (250 µl/well, 1-6 x 10^4 cells/ml) in RPMI 1640 medium, containing 5% FBS (Fetal Bovine Serum). […] After 48 hours exposure to test compounds, cells were fixed with trichloroacetic acid, and stained with Sulforhodamine B. After washing with trichloroacetic acid, bound dye was solubilized in 10 mM Tris base and optical density was determined using plate reader. Under conditions of the assay the optical density is proportional to the number of cells in the well. […] The test procedure is described in details by Philip Skehan et. al, J.Natl. Canc. Inst., 82, 1107-1112 (1990). […] Information about some of the cell lines used in these test procedures is available from the American Type Tissue Collection: Cell Lines and Hybridomas, 1994 Reference Guide, 8th Edition.

[2] = system: SW620; assay: as above; format: cell-based, Human; settings: 48 hours exposure; for IC50: Homo sapiens, SW-620, 48 h
Method: as §1

[3] = system: MDA-MB-435; assay: as above; format: cell-based, Human; settings: 48 hours exposure; for IC50: Homo sapiens, MDA-MB-435, 48 h
Method: as §1

[4] = system: A431; assay: as above; format: cell-based, Human; settings: 48 hours exposure; for IC50: Homo sapiens, A-431, 48 h
Method: as §1

[5] = biological target: Epithelial Cell Kinase (ECK) (Homo sapiens, UniProt P29317); assay: Inhibition of Epithelial Cell Kinase (ECK), immobilized biotinylated peptide, HRP anti-phosphotyrosine readout; format: biochemical; settings: IC50, substrate phosphorylation
Sequence of Epithelial Cell Kinase (ECK) (P29317 24-976, species assumed): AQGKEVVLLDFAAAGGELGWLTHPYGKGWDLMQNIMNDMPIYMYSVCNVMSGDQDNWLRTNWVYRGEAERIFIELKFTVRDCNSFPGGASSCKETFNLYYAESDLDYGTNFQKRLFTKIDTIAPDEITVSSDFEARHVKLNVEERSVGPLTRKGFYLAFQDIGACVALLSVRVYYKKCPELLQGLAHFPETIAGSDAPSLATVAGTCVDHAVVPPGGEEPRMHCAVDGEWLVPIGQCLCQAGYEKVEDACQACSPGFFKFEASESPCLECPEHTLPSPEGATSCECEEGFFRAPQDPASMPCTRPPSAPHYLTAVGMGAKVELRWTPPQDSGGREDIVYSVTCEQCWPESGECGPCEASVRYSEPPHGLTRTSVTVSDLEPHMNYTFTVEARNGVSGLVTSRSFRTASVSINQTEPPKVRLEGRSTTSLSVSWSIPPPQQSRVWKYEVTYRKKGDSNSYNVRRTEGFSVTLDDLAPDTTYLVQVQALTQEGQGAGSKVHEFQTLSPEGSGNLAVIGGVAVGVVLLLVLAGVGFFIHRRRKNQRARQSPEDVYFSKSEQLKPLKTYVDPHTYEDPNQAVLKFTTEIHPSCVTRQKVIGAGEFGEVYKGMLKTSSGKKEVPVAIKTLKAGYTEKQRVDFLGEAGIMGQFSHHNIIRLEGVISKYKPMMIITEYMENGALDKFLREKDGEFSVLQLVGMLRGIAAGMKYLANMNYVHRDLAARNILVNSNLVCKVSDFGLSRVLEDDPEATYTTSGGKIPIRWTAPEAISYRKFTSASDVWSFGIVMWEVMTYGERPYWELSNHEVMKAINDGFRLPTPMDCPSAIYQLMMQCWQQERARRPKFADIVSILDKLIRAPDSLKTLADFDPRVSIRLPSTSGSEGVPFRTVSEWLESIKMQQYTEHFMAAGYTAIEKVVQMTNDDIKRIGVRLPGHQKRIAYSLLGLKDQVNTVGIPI
Method: In this standard pharmacological test procedure, a biotinylated peptide substrate is first immobilized on neutravidin-coated microtiter plates. The test drug, the Epithelial Cell Kinase (ECK), Mg^++, sodium vanadate (a protein tyrosine phosphatase inhibitor), and an appropriate buffer to maintain pH (7.2) are then added to the immobilized substrate-containing microtiter wells. ATP is then added to initiate phosphorylation. After incubation, the assay plates are washed with a suitable buffer leaving behind phosphorylated peptide which is exposed to horse radish peroxidase (HRP)-conjugated anti-phosphotyrosine monoclonal antibody. The antibody-treated plates are washed again and the HRP activity in individual wells is quantified as a reflection of degree of substrate phosphorylation. […] Multiple entries for a given compound indication it was tested multiple times.

[6] = system: 3T3; assay: Inhibition of Cancer Cell Growth as Measured by Cell Number (Sulforhodamine B); format: cell-based; settings: 48 hours exposure; for IC50: Mus musculus, NIH3T3
Method: as §1

[7] = system: 3T3/c-erbb2; assay: as above; format: cell-based; settings: 48 hours exposure
Method: as §1

[8] = biological target: T1, Kinase insert Domain containing Receptor (KDR: the catalytic domain of the VEGF receptor) (Homo sapiens, UniProt P35968); assay: Inhibition of Kinase insert Domain containing Receptor (KDR), radioactive phosphorylation of Glu:Tyr copolymer; format: biochemical; settings: IC50, substrate phosphorylation
T1 construct: KDR: the catalytic domain of the VEGF receptor
T1 sequence (P35968 834-1162 limits assumed): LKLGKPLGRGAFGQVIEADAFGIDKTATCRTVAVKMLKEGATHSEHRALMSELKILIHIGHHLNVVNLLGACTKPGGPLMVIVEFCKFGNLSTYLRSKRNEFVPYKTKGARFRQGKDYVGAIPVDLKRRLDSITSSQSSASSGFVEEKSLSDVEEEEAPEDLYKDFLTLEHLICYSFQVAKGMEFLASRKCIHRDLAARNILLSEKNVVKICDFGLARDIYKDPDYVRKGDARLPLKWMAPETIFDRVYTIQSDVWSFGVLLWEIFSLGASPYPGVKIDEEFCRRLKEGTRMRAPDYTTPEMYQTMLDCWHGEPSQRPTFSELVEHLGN
Method: In this standard pharmacological test procedure, KDR protein is mixed, in the presence or absence of a inhibitor compound, with a substrate peptide to be phosphorylated (a copolymer of glutamic acid and tyrosine, E:Y :: 4:1) and other cofactors such as Mg^++ and sodium vanadate (a protein tyrosine phosphatase inhibitor) in an appropriate buffer to maintain pH (7.2). ATP and a radioactive tracer (either P^32- or P^33- labeled ATP) is then add to initiate phosphorylation. After incubation, the radioactive phosphate associated with the acid-insoluble fraction of the assay mixture is then quantified as reflection of substrate phosphorylation. […] Multiple entries for a given compound indication it was tested multiple times.

[9] = biological target: Recombinant human MEK 1 (MAPKK) / recombinant human ERK2 (MAPK) (Mek-Erk) (Homo sapiens, UniProt P28482+Q02750); assay: Mitogen Activated Protein Kinase (MAPK) assay, two component coupled Mek-Erk test; format: biochemical
[10] = biological target: T2, epidermal growth factor receptor kinase (EGF-R Kinase, recombinant enzyme; His-tagged cytoplasmic domain of EGFR) (Homo sapiens, UniProt P00533); assay: Inhibition of Epidermal Growth Factor Receptor Kinase (EGF-R) using recombinant enzyme, RR-SRC peptide phosphorylation, 33P-ATP; format: biochemical; settings: for inhibition at 0.5 µM: read-out: %Inh @ 0.5 µM; for IC50: recombinant enzyme, 90 min at room temperature
T2 construct: EGFR cDNA encoding amino acids 645 - 1186 preceded by Met-Ala-(His)6; Met-Ala-(His)6 (N); made in house; host or cells: Sf9 insect cells, recombinant baculovirus vHcEGFR52
T2 sequence (P00533 669-1210): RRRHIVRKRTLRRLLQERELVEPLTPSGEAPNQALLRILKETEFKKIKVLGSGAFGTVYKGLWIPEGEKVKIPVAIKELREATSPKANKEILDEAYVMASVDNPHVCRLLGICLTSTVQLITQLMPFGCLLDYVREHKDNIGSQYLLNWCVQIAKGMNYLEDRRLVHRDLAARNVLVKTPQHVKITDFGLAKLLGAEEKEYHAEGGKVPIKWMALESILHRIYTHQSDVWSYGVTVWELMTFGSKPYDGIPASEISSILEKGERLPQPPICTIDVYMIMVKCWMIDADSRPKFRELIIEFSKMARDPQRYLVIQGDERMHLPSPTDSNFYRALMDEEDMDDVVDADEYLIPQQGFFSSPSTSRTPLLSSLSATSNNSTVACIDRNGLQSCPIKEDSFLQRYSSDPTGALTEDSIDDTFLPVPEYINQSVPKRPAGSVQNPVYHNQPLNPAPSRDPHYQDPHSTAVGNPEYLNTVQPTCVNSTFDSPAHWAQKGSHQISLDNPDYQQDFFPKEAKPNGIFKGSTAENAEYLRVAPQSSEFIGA
Method: Representative test compounds were evaluated for their ability to inhibit the phosphorylation of the tyrosine residue of a peptide substrate catalyzed by the enzyme epidermal growth factor receptor kinase. The peptide substrate (RR-SRC) has the sequence arg-arg-leu-ile-glu-asp-ala-glu-tyr-ala-ala-arg-gly. The enzyme used in this test procedure is the His-tagged cytoplasmic domain of EGFR. A recombinant baculovirus (vHcEGFR52) was constructed containing the EGFR cDNA encoding amino acids 645 - 1186 preceded by Met-Ala-(His)6. Sf9 cells in 100 mm plates were infected at an moi of 10 pfu/cell and cells were harvested 48 h post infection. A cytoplasmic extract was prepared using 1% Triton X-100 and applied to Ni-NTA column. After washing the column with 20 mM imidazole, HcEGFR was eluted with 250 mM imidazole (in 50 mM Na2HPO4, pH 8.0, 300 mM NaCl). Fractions collected were dialyzed against 10 mM HEPES, pH 7.0, 50 mM NaCl, 10% glycerol, lug/mL antipain and leupeptin and 0.1 mM Pefabloc SC. The protein was frozen in dry ice/methanol and stored -70°C.
Test compounds were made into 10 mg/mL stock solutions in 100% dimethylsulfoxide (DMSO). Prior to experiment, stock solutions were diluted to 500 uM with 100% DMSO and then serially diluted to the desired concentration with HEPES buffer (30 mM HEPES pH 7.4).
For the enzyme reaction, 10 uL of each inhibitor (at various concentrations) were added to each well of a 96-well plate. To this was added 3 uL of enzyme (1:10 dilution in 10mM HEPES, pH 7.4 for final cone. of 1:120). This was allowed to sit for 10 min on ice and was followed by the addition of 5 ul peptide (80 uM final cone.), 10ul of 4X Buffer (Table A), 0.25 uL ^33P-ATP and 12 uL H2O. The reaction was allowed to run for 90 min at room temperature and was followed by spotting the entire volume on to precut P81 filter papers. The filter discs were washed 2X with 0.5% phosphoric acid and radioactivity was measured using a liquid scintillation counter.
The inhibition data for representative compounds of the invention are shown below in TABLE 1. […] The % inhibition of the test compound was determined for at least three different concentrations and the IC50 value was evaluated from the dose response curve. […] CPM(control) is in units of counts per minute and was a number expressing the amount of radiolabled ATP (γ-^33P) incorporated into the RR-SRC peptide substrate by the enzyme after 90 minutes at room temperature in the absence of test compound as measured by liquid scintillation counting. The CPM values were corrected for the background counts produced by ATP in the absence of the enzymatic reaction. […]

Molecule | IC50 µg/mL SK-BR3 [1] | IC50 µg/mL SW620 [2] | IC50 µg/mL MDA-MB-435 [3] | IC50 µg/mL A431 [4] | IC50 [5] | IC50 µg/mL 3T3 [6] | IC50 µg/mL 3T3/c-erbb2 [7] | IC50 [8] | IC50 ([9]; read-out: Mek-Erk) | IC50 [1] | IC50 [2] | IC50 [3] | IC50 [4] | IC50 [6] | IC50 [7] | IC50 ([9]; read-out: Mek-Erk µM) | inhibition at 0.5 µM [10] | IC50 [10]
4-(2,3-Dihydro-benzo[1,4]dioxin-6-ylamino)-6,7-diethoxy-quinoline-3-carbonitrile [Example 105] | 0.281 µg/mL | 0.411 µg/mL | 0.235 µg/mL | 0.270 µg/mL | > 51.1 µM | 0.853 µg/mL | 0.375 µg/mL | 76.6 µM | – | – | – | – | – | – | – | – | – | –
6,7-Diethoxy-4-(1-oxo-indan-5-ylamino)-quinoline-3-carbonitrile [Example 110] | 0.0281 µg/mL | 0.0181 µg/mL | 0.0280 µg/mL | 0.0244 µg/mL | – | 0.0923 µg/mL | 0.0311 µg/mL | – | > 100 µM and 50 µM | – | – | – | – | – | – | – | – | –
COCCOc1cc2ncc(C#N)c(Nc3ccc4cn[nH]c4c3)c2cc1OCCOC [Example 106, 4-(1H-Indazol-6-ylamino)-6,7-bis-(2-methoxy-ethoxy)-quinoline-3-carbonitrile] | – | – | – | – | > 46.1 µM | – | – | 23.1 µM | – | > 5 µg/mL | > 5 µg/mL | 2.04 µg/mL (≈ 4.72 µM) | 1.96 µg/mL (≈ 4.52 µM) | > 5 µg/mL | > 5 µg/mL | – | – | –
CCOc1cc2ncc(C#N)c(Nc3ccc4c(=O)[nH][nH]c(=O)c4c3)c2cc1OCC [Example 107, 4-(1,4-Dioxo-1,2,3,4-tetrahydro-phthalazin-6-ylamino)-6,7-diethoxy-quinoline-3-carbonitrile] | – | – | – | – | > 47.9 µM | – | – | > 71.9 µM | – | > 5 µg/mL | > 5 µg/mL | > 5 µg/mL | > 5 µg/mL | > 5 µg/mL | > 5 µg/mL | – | – | –
CCOc1cc2ncc(C#N)c(Nc3ccc4c(c3)CCC4)c2cc1OCC [Example 108, 6,7-Diethoxy-4-(indan-5-ylamino)-quinoline-3-carbonitrile] | – | – | – | – | > 2.68 µM | – | – | > 80.3 µM | – | 0.294 µg/mL (≈ 0.787 µM) | < 0.0005 µg/mL | 0.352 µg/mL (≈ 0.943 µM) | 0.342 µg/mL (≈ 0.916 µM) | 0.525 µg/mL (≈ 1.41 µM) | 0.0198 µg/mL (≈ 0.053 µM) | – | – | –
CCOc1cc2ncc(C#N)c(Nc3ccc4[nH]c(=O)oc(=O)c4c3)c2cc1OCC [Example 109, 4-(2,4-Dioxo-1,4-dihydro-2H-benzo[d][1,3]oxazin-6-ylamino)-6,7-diethoxy-quinoline-3-carbonitrile] | – | – | – | – | > 47.8 µM | – | – | 23.9 µM | – | > 5 µg/mL | 2.92 µg/mL (≈ 6.98 µM) | > 5 µg/mL | > 5 µg/mL | > 5 µg/mL | 4.62 µg/mL (≈ 11 µM) | > 100 µM | – | –
CCOc1cc2ncc(C#N)c(Nc3ccc4c(c3)C(=O)OC4)c2cc1OCC [Example 111, 6,7-Diethoxy-4-(3-oxo-1,3-dihydro-isobenzofuran-5-ylamino)-quinoline-3-carbonitrile] | – | – | – | – | > 51.4 µM | – | – | > 77 µM | – | > 5 µg/mL | 1.56 µg/mL (≈ 4.02 µM) | 3.4 µg/mL (≈ 8.74 µM) | > 5 µg/mL | > 5 µg/mL | 3.3 µg/mL (≈ 8.48 µM) | > 100 µM | 10% | > 1 µM
CCOc1cc2ncc(C#N)c(Nc3ccc4c(c3)S(=O)(=O)C=C4)c2cc1OCC [Example 112, 4-(1,1-Dioxo-1H-benzo[b]thiophen-6-ylamino)-6,7-diethoxy-quinoline-3-carbonitrile] | – | – | – | – | > 47.5 µM | – | – | > 71.2 µM | > 100 µM | 0.336 µg/mL (≈ 0.797 µM) | 0.146 µg/mL (≈ 0.346 µM) | 0.0033 µg/mL (≈ 0.00783 µM) | 0.257 µg/mL (≈ 0.61 µM) | 0.392 µg/mL (≈ 0.93 µM) | 0.251 µg/mL (≈ 0.596 µM) | – | – | –
CCOc1cc2ncc(C#N)c(Nc3ccc4cn[nH]c4c3)c2cc1OC [Example 115, 7-Ethoxy-4-(indazol-6-ylamino)-6-methoxy-quinoline-3-carbonitrile] | – | – | – | – | > 27.8 µM | – | – | 5.56 µM and > 2.78 µM | 25 µM | 0.022 µg/mL (≈ 0.0612 µM) | 0.0212 µg/mL (≈ 0.059 µM) | 0.0359 µg/mL (≈ 0.0999 µM) | 0.0368 µg/mL (≈ 0.102 µM) | 0.344 µg/mL (≈ 0.957 µM) | 0.0267 µg/mL (≈ 0.0743 µM) | – | 49% | > 0.5 µM
CCOc1cc2c(Nc3ccc4cn[nH]c4c3)c(C#N)cnc2cc1OC [Example 126, 6-Ethoxy-4-(1H-indazol-6-ylamino)-7-methoxyquinoline-3-carbonitrile] | – | – | – | – | > 27.9 µM | – | – | 8.36 µM and > 2.79 µM | > 100 µM | 2.09 µg/mL (≈ 5.83 µM) | 4.31 µg/mL (≈ 12 µM) | 2.63 µg/mL (≈ 7.31 µM) | 0.786 µg/mL (≈ 2.19 µM) | 3.22 µg/mL (≈ 8.96 µM) | 4.8 µg/mL (≈ 13.4 µM) | – | – | 0.45 µM

From patent publication EP1117659B1, “SUBSTITUTED 3-CYANOQUINOLINES AS PROTEIN TYROSINE KINASES INHIBITORS” (Wyeth Holdings Corporation, priority 1998, dated 2000)
